Test systems include IGROV-1; SF-295; LOX IMVI; NCI-H522; DU-145; SN12C; PC-3; SK-MEL-5; RPMI-8226; Malme-3M; OVCAR-4; A498; SK-MEL-2; MDA-N; EKVX; K562; COLO 205; NCI/ADR-RES; M14; TK-10.
What all share (test): growth of human tumour cells (NCI), 48 h

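The compound was tested at five concentrations on cells cultured in 96-well plates, with a 48-hour exposure period. At the GI50, growth is halved.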 Activity calls are given as the source filed them. Cut-off read from the data, not from the text of the source: active = GI50 up to about 1.1 µM and inactive = higher.

These results are taken from ChEMBL document CHEMBL1201862, “PubChem BioAssay data set” (2004).

With `N#CC(C#N)=CNC(=S)c1ccncc1`, the GI50 was 69.5 µM (inactive) in the assay with IGROV-1; > 100 µM (inactive) with SF-295; > 100 µM (inactive) with LOX IMVI; 21.9 µM (inactive) in the assay with NCI-H522; > 100 µM (inactive) with DU-145; 87.5 µM (inactive) in the assay on SN12C. Further, the GI50 in the assay on PC-3 was > 100 µM (inactive); with SK-MEL-5, 48.4 µM (inactive); in the assay with RPMI-8226, 36.9 µM (inactive); in the assay with Malme-3M, > 100 µM (inactive); in the assay with OVCAR-4, > 100 µM (inactive); in the assay on A498, 92.9 µM (inactive). Also, the GI50 was > 100 µM (inactive) in the assay on SK-MEL-2; > 100 µM (inactive) with MDA-N; > 100 µM (inactive) in the assay with EKVX; 39.1 µM (inactive) with K562; 45.1 µM (inactive) in the assay with COLO 205; > 100 µM (inactive) in the assay on NCI/ADR-RES. In the assay on M14, the GI50 is > 100 µM (inactive).

For `CO/C=C/C=C(\C#N)C(=O)OC`, the GI50 with IGROV-1, in the assay with SF-295, with LOX IMVI, in the assay on NCI-H522, in the assay on DU-145 and with SN12C was > 100 µM (inactive) throughout. Further, the GI50 with PC-3, in the assay on SK-MEL-5, with RPMI-8226, in the assay on Malme-3M, in the assay with OVCAR-4 and in the assay with TK-10 was > 100 µM (inactive) throughout. The GI50 with A498, in the assay with SK-MEL-2, in the assay on MDA-N, in the assay on EKVX, in the assay on K562 and with COLO 205 was > 100 µM (inactive) throughout. For the same compound, the GI50 in the assay on NCI/ADR-RES was > 100 µM (inactive).

Take `CC(C)(C)OC(=O)NCCNC(=O)CN(CC(=O)O)C1CCCCC1N(CC(=O)O)CC(=O)O` (configuration not stated): the GI50 with IGROV-1, in the assay with SF-295, in the assay on LOX IMVI, in the assay on NCI-H522, with DU-145 and with SN12C was > 100 µM (inactive) in each case. The GI50 in the assay with PC-3, in the assay on SK-MEL-5, in the assay on RPMI-8226, with Malme-3M, with OVCAR-4 and with TK-10 was > 100 µM (inactive) in each case. The GI50 with A498, in the assay on SK-MEL-2, with MDA-N, in the assay on K562, in the assay with COLO 205 and in the assay with NCI/ADR-RES was > 100 µM (inactive) in each case. Moreover, in the assay with M14, the GI50 is > 100 µM (inactive).

For the compound `COc1ccc(NC(=S)N/N=C(\C)c2nc3cccnc3[nH]2)cc1`, the GI50 was 5.55 µM (inactive) in the assay with IGROV-1; 3.13 µM (inactive) in the assay with SF-295; 3.18 µM (inactive) in the assay with LOX IMVI; 7.03 µM (inactive) in the assay on NCI-H522; 6.17 µM (inactive) in the assay with DU-145; 5.65 µM (inactive) with SN12C. Also, the GI50 in the assay on PC-3 was 4.48 µM (inactive); with SK-MEL-5, 4.33 µM (inactive); in the assay with RPMI-8226 it was 4.35 µM (inactive); with Malme-3M, 7.59 µM (inactive); in the assay on OVCAR-4 it was 4.94 µM (inactive); in the assay on TK-10 it was 0.637 µM (active). Besides, the GI50 in the assay on A498 is 14.3 µM (inactive); in the assay on SK-MEL-2 it was 16.4 µM (inactive); in the assay on MDA-N it was 11.7 µM (inactive); in the assay on EKVX, 2.32 µM (inactive); in the assay on K562, 3.58 µM (inactive); in the assay with COLO 205, 4.52 µM (inactive). Besides, the GI50 in the assay with NCI/ADR-RES was 6.62 µM (inactive).

Turning to `Cc1ccc2c(c1)C(=O)C1(Cc3ccccc3C1=O)C2` (configuration not stated), the GI50 in the assay on IGROV-1, in the assay on SF-295, in the assay with LOX IMVI, with NCI-H522, in the assay on DU-145 and in the assay with SN12C was > 100 µM (inactive) each time. The GI50 with PC-3, with SK-MEL-5, in the assay on RPMI-8226, in the assay on Malme-3M, in the assay with OVCAR-4 and in the assay with TK-10 was > 100 µM (inactive) throughout. Besides, the GI50 in the assay with A498, with MDA-N, in the assay on EKVX, in the assay with K562, in the assay on COLO 205 and in the assay with NCI/ADR-RES was > 100 µM (inactive) each time. The GI50 in the assay on M14 was > 100 µM (inactive).

Consider `O=C1c2ccccc2C(O)(O)C1(O)C1(O)C(=O)c2ccccc2C1(O)O` (configuration not stated), for which the GI50 with IGROV-1 was 41.7 µM (inactive); with SF-295, 34.8 µM (inactive); with LOX IMVI, 23 µM (inactive); with NCI-H522, 19.4 µM (inactive); with DU-145 it was 57.3 µM (inactive); with SN12C, 16.1 µM (inactive). The GI50 with PC-3 is > 100 µM (inactive); in the assay on SK-MEL-5, 20.1 µM (inactive); in the assay on RPMI-8226 it was 51.2 µM (inactive); with Malme-3M, 22.1 µM (inactive); with OVCAR-4 it was 45.5 µM (inactive); in the assay with TK-10, 23 µM (inactive). Further, the GI50 in the assay with A498 is > 100 µM (inactive); in the assay on SK-MEL-2, > 100 µM (inactive); in the assay on MDA-N, 21.7 µM (inactive); in the assay with EKVX, 36.3 µM (inactive); with COLO 205, 20.7 µM (inactive); with NCI/ADR-RES it was 69.7 µM (inactive). Moreover, the GI50 with M14 was 35 µM (inactive).

As for `CCc1nn(CN2CCN(C)CC2)c(=S)n1/N=C\c1ccc(-c2ccc([N+](=O)[O-])cc2)o1`, the GI50 in the assay with IGROV-1 is 89.9 µM (inactive); with SF-295, 40.7 µM (inactive); in the assay on LOX IMVI, 59 µM (inactive); in the assay with NCI-H522, 51.5 µM (inactive); with DU-145, 50.2 µM (inactive); with SN12C, 58.2 µM (inactive). Also, the GI50 was 54.3 µM (inactive) in the assay with PC-3; 40.5 µM (inactive) in the assay with SK-MEL-5; 39.5 µM (inactive) in the assay with RPMI-8226; 42 µM (inactive) with Malme-3M; 44 µM (inactive) with OVCAR-4; 28.5 µM (inactive) in the assay on TK-10. Also, the GI50 with A498 was 26 µM (inactive); in the assay with SK-MEL-2, 74.3 µM (inactive); in the assay on MDA-N it was 94 µM (inactive); in the assay on EKVX, 43.4 µM (inactive); in the assay with K562, 40 µM (inactive); in the assay with NCI/ADR-RES it was 25.9 µM (inactive). Further, the GI50 in the assay on M14 was 80.4 µM (inactive).

For the compound `COc1ccc(-n2c(C)nc3ccc(NC4OC(CO)C(O)C(O)C4O)cc3c2=O)cc1` (configuration not stated), the GI50 in the assay with IGROV-1, with SF-295, with LOX IMVI, in the assay with NCI-H522, in the assay on DU-145 and in the assay on SN12C was > 100 µM (inactive) in each case. Also, the GI50 with PC-3, in the assay with SK-MEL-5, in the assay with RPMI-8226, with Malme-3M, with OVCAR-4 and with TK-10 was > 100 µM (inactive) each time. For the same compound, the GI50 in the assay with A498 is > 100 µM (inactive); with SK-MEL-2, 97.5 µM (inactive); in the assay with MDA-N it was > 100 µM (inactive); with EKVX, > 100 µM (inactive); in the assay on K562, > 100 µM (inactive); in the assay with COLO 205 it was > 100 µM (inactive). Further, in the assay on NCI/ADR-RES, the GI50 is > 100 µM (inactive).
